Molecules are shown by their SMILES. Where a name gives a salt, the structure may show the parent alone.

The target of the test is T1, factor VIIa/tissue factor complex (Homo sapiens, UniProt P08709).
T1 construct: 9 nM of soluble factor VIIa
T1 sequence (P08709 213-466 limits assumed): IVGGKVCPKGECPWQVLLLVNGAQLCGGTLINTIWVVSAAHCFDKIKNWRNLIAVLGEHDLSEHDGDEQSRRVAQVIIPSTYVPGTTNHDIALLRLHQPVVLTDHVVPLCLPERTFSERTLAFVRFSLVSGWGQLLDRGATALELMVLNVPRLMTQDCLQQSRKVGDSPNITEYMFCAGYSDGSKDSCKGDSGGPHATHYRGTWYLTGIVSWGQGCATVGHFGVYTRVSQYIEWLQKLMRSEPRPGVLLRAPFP
T1 sequence (P08709 61-212 partner limits assumed): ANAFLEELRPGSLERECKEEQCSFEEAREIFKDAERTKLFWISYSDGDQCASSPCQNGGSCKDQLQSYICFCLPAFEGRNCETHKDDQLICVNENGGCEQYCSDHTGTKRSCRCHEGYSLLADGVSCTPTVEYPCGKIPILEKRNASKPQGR
T1 sequence (P13726 33-295 partner): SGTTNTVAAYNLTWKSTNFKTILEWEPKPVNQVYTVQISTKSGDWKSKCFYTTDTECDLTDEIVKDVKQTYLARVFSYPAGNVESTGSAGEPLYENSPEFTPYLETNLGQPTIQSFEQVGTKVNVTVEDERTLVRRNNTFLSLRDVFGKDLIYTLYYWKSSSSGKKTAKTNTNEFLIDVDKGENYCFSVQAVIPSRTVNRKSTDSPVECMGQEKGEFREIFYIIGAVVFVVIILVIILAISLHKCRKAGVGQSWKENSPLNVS
Briefly: Inhibition of the amidolytic activity of the factor VIIa/tissue factor complex (chromogenic peptide substrate). In kind it is biochemical. Conditions: chromogenic substrate Chromozym-tPA (3.5 mM), pH 7.5, room temperature, 15 minutes incubation, 10 minutes kinetic reading. The protocol: The measurements were carried out on microtiter plates at room temperature. To this end, per well of the plate, 100 μl of a solution of 26 nM of tissue factor, 9 nM of soluble factor VIIa and 8 mM of calcium chloride were added to 25 μl of a solution of the inhibitor in a buffer [pH 7.5, 100 mM, comprising 0.14 M NaCl, 0.1 M N(2-hydroxyethyl)piperazine-N'-(2-ethanesulphonic acid) (HEPES), 0.5 mg/l of fatty-acid-free BSA (bovine serum albumin) and 0.05% NaN3 ]. After an incubation time of 15 minutes, the reaction was started by addition of 50 μl of chromogenic substrate Chromozym-tPA (3.5 mM, MeSO2 -D-Phe-Gly-Arg-paranitroanilide), and the hydrolysis of the substrate was followed spectrophotometrically on a kinetic microtiter plate reader over 10 minutes. Using the plot of the inhibition curves, the Ki values were determined according to the method described in Biochem. J., 55:170-171 (1953).
Compound `COc1cc(C(Nc2ccc(C(=N)N)cc2)C(=O)NCc2ccccc2)ccc1OCc1ccccc1` (racemic) [Example 1, (R,S)-N-benzyl-2-(4-benzyloxy-3-methoxyphenyl)-2-(4-carbamimidoylphenylamino)acetamide hydrochloride] yielded a Ki of 50 nM.
With `COc1ccc(C(Nc2ccc(C(=N)N)cc2)C(=O)NCc2ccccc2)cc1OC` (racemic) [Example 2a, (R,S)-N-benzyl-2-(4-carbamimidoylphenylamino)-2-(3,4-dimethoxyphenyl)acetamide hydrochloride], the Ki amounted to 280 nM.
Turning to `COc1cc(C(Nc2ccc(C(=N)N)cc2)C(=O)NCc2ccccc2)cc(OC)c1OC` (racemic) [Example 5a, (R,S)-N-benzyl-2-(4-carbamimidoylphenylamino)-2-(3,4,5-trimethoxyphenyl)acetamide hydrochloride], the Ki worked out at 280 nM.
As for `COc1cc(OC)cc(C(Nc2ccc(C(=N)N)cc2)C(=O)NCc2ccccc2)c1` (racemic) [Example 5b, (R,S)-N-benzyl-2-(4-carbamimidoylphenylamino)-2-(3,5-dimethoxyphenyl)acetamide hydrochloride], the figure is 190 nM; as for `COc1ccc(C(Nc2ccc(C(=N)N)cc2)C(=O)NC(c2ccccc2)c2ccccc2)cc1OC` (racemic) [Example 5c, (R,S)-N-benzhydryl-2-(4-carbamimidoylphenylamino)-2-(3,4-dimethoxyphenyl)acetamide hydrochloride], 160 nM.
As for `CCOc1ccc(C(Nc2ccc(C(=N)N)cc2)C(=O)NCc2ccccc2)cc1OCC` (racemic) [Example 5d, (R,S)-N-benzyl-2-(4-carbamimidoylphenylamino)-2-(3,4-diethoxyphenyl)acetamide hydrochloride], the figure is 110 nM.
As for `CCOc1cc(C(Nc2ccc(C(=N)N)cc2)C(=O)NCc2ccccc2)ccc1OCc1ccccc1` (racemic) [Example 5g, (R,S)-N-benzyl-2-(4-benzyloxy-3-ethoxyphenyl)-2-(4-carbamimidoylphenylamino)acetamide hydrochloride], the figure is 44 nM; as for `COc1cccc(COc2ccc(C(Nc3ccc(C(=N)N)cc3)C(=O)NCc3ccccc3)cc2OC)c1` (racemic) [Example 6, (R,S)-N-benzyl-2-(4-carbamimidoylphenylamino)-2-[3-methoxy-4-(3-methoxybenzyloxy)phenyl]) acetamide acetate], 220 nM; as for `COc1cc(C(Nc2ccc(C(=N)N)cc2)C(=O)NCc2ccccc2)ccc1OCc1ccc2[nH]ccc2c1` (racemic) [Example 7e, (R,S)-N-benzyl-2-(4-carbamimidoylphenylamino)-2-[4-(1H-indol-5-ylmethoxy)-3-methoxyphenyl]acetamide acetate], 110 nM.
Take `COc1cc(C(Nc2ccc(C(=N)N)cc2)C(=O)NCc2ccccc2)ccc1OCc1ccc2c(c1)NCCC2` (racemic) [Example 7f, (R,S)-N-benzyl-2-(4-carbamimidoylphenylamino)-2-[3-methoxy-4-(1,2,3,4-tetrahydroquinolin-7-ylmethoxy)phenyl]acetamide acetate]: the Ki was 260 nM.
With `COc1cc(C(Nc2ccc(C(=N)N)cc2)C(=O)NCc2ccccc2)ccc1OCCc1ccccc1` (racemic) [Example 7h, (R,S)-N-benzyl-2-(4-carbamimidoylphenylamino)-2-[3-methoxy-4-phenethyloxyphenyl)acetamide acetate] the figure was 210 nM; with `COc1cc(C(Nc2ccc(C(=N)N)cc2)C(=O)NCc2ccccc2)ccc1OCc1ccc2cnccc2c1` (racemic) [Example 7n], 170 nM.
Take `COc1cc(C(Nc2ccc(C(=N)N)cc2)C(=O)Nc2ccccc2)ccc1OCc1ccccc1` (racemic) [Example 7s, (R,S)-2-(4-benzyloxy-3-methoxyphenyl)-2-(4-carbamimidoylphenylamino)-N-phenylacetamide acetate]: the affinity, expressed as Ki, was 170 nM.
As for `COc1cc(C(Nc2ccc(C(=N)N)cc2)C(=O)NCc2ccccc2)ccc1OCc1ccncc1` (stereo not shown) [Example 7a, N-benzyl-2-(4-carbamimidoylphenylamino)-2-[3-methoxy-4-(pyridin-4-ylmethoxy)phenyl]acetamide acetate], the figure is 190 nM.
Compound `COc1cc(C(Nc2ccc(C(=N)N)cc2)C(=O)NCc2ccccc2)c(NS(=O)(=O)c2ccccc2)cc1OCc1ccccc1` (stereo not shown) [Example 8, 2-(2-phenylsulphonylamino-4-benzyloxy-5-methoxyphenyl)-N-benzyl-2-(4-carbamimidoylphenylamino)acetamide acetate] came in with a Ki of 150 nM.
`COc1cc(C(Nc2ccc(C(=N)N)cc2)C(=O)NCc2ccccc2)c(NS(=O)(=O)c2ccccc2)cc1O` (stereo not shown) [Example 10, 2-(2-phenylsulphonylamino-4-hydroxy-5-methoxyphenyl)-N-benzyl-2-(4-carbamimidoylphenylamino)acetamide acetate]: affinity was put at a Ki of 112 nM.
